In patent US6894052B1, “Diarylalkylpiperazines active on the lower urinary tract” (Recordati S.A. Chemical and Pharmaceutical Company, priority 1997, dated 2005):
Counter-ions that a name gives are not always drawn. Like-named read-outs stand apart in the source and are kept apart here.

Key:
[1] = biological target: T1, human 5-HT1A serotonergic receptor (Homo sapiens, UniProt P08908); experiment: Radioreceptor binding to recombinant human 5-HT1A receptors ([3H]8-OH-DPAT, HeLa cell membranes)
T1 construct: expressed in transfected cells; host or cells: HeLa (human), stably transfected; cell membranes
T1 sequence (P08908 1-422): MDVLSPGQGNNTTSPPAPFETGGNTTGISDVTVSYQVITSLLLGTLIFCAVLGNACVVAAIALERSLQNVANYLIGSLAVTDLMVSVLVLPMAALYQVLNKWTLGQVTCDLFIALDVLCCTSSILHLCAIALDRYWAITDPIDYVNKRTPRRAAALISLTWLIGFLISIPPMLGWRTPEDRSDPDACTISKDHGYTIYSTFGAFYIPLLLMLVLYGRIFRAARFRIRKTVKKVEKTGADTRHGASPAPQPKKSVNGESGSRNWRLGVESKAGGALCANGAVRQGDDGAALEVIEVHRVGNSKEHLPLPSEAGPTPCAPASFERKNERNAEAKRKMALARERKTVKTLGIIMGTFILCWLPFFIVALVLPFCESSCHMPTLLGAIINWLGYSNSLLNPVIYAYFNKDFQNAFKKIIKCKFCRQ
Method: Genomic clone G-21 coding for the human 5-HT1A serotonergic receptor is stably transfected in a human cell line (HeLa). HeLa cells were grown as monolayers in Dulbecco's modified Eagle's medium (DMEM), supplemented with 10% fetal calf serum and gentamicin ([…]), 5% CO2 at 37° C. Cells were detached from the growth flask at 95% confluence by a cell scraper and were lysed in ice-cold 5 mM Tris and 5 mM EDTA buffer (pH 7.4). Homogenates were centrifuged at 40000×g×20 min and pellets were resuspended in a small volume of ice-cold 5 mM Tris and 5 mM EDTA buffer (pH 7.4) and immediately frozen and stored at −70° C. until use. On the day of experiment, cell membranes were resuspended in binding buffer: 50 mM Tris HCl (pH 7.4), 2.5 mM MgCl2, 10 μM pargyline (Fargin et al., Nature 335, 358-360, 1988). Membranes were incubated in a final volume of 1 ml for 30 min at 30° C. with 0.2-1 nM [^3H]8-OH-DPAT, in absence or presence of competing drugs; non-specific binding was determined in the presence of 10 μM 5-HT. The incubation was stopped by addition of ice-cold Tris-HCl buffer and rapid filtration through 0.2% polyethyleneimine-pretreated Whatman GF/B or Schleieher & Schuell GF52 filters.
(§1) The inhibition of specific binding of the radioligands by the tested drugs was analyzed to estimate the IC50 value by using the non-linear curve-fitting program Allfit (De Lean et al., Am. J. Physiol. 235, E97-E102, 1978). The IC50 value is converted to an affinity constant (Ki) by the equation of Cheng & Prusoff (Cheng, Y. C.; Prusoff, W. H. Biochem. Pharmacol. 22, 3099-3108, 1973).

[2] = biological target: T2, 5-HT2A serotonergic receptors (Rattus norvegicus, UniProt P14842); experiment: Radioreceptor binding to native 5-HT2A serotonergic receptors ([3H]ketanserin, rat cerebral cortex membranes); conditions: rat cerebral cortex membranes, [3H]ketanserin; read-out: Ki 5-HT2A
T2 construct: from tissue; host or cells: cerebral cortex of male Sprague Dawley rats, membranes
Method: Binding studies on native 5-HT2A serotonergic receptors (Craig A. and Kenneth J., Life Sci. 38, 117-127, 1986) were carried out in membranes of rat cerebral cortex. Male Sprague Dawley rats (200-300 g, S D Harlan/Nossan, Italy) were killed by cervical dislocation and cerebral cortexes were excised and immediately frozen in liquid nitrogen and stored at −70° C. until use. Tissues were homogenized (2×20 sec) in 50 volumes of cold 50 mM Tris-HCl buffer pH 7.4, using a Polytron homogenizer (speed 7). Homogenates were centrifuged at 49000×g for 10 min, resuspended in 50 volumes of the same buffer, incubated at 37° C. for 15 min and centrifuged and resuspended twice more. The final pellets were suspended in 100 volumes of 50 mM Tris-HCl buffer pH 7.7. Membranes were incubated in a final volume of 1 ml for 20 min at 37° C. with 0.7-1.3 nM [^3H]ketanserin (5-HT2A receptors), in absence or presence of competing drugs. Non-specific binding was determined in the presence of 2 μM ketanserin. The incubation was stopped by addition of ice-cold 50 mM Tris-HCl buffer and rapid filtration through 0.2% polyethyleneimine pretreated Whatman GF/B or Schleicher & Schuell GF52 filters. The filters are then washed with ice-cold buffer and the radioactivity retained on the filters was counted by liquid scintillation spectrometry.
as §1

α1 adrenergic receptors = experiment: Radioreceptor binding to native α1 adrenergic receptors ([3H]prazosin, rat cerebral cortex membranes)
Method: Binding studies on native α1 adrenergic receptors were carried out in membranes of rat cerebral cortex. Male Sprague Dawley rats (200-300 g, Charles River, Italy) were killed by cervical dislocation and cerebral cortexes were dissected and immediately frozen and stored at −70° C. until use. Tissue was homogenized (2×20 sec) in 50 volumes of cold 50 mM Tris-HCl buffer pH 7.4, using a Polytron homogenizer (speed 7). Homogenates were centrifuged at 48000×g for 10 min, resuspended in 50 volumes of the same buffer, incubated at 37° C. for 15 min and centrifuged and resuspended twice more. The final pellets were suspended in 100 volumes of 50 mM Tris-HCl buffer pH 7.4, containing 10 μM pargyline and 0.1% ascorbic acid. Membranes were incubated in a final volume of 1 ml for 30 min at 25° C. with 0.1-0.5 nM [^3H]prazosin, in the absence or presence of competing drugs; non-specific binding was determined in the presence of 10 μM phentolamine.
The incubation was stopped by addition of ice-cold 50 mM Tris-HCl buffer and rapid filtration through 0.2% polyethyleneimine-pretreated Whatman GF/B or Schleicher & Schuell GF52 filters. The filters were then washed with ice-cold buffer and the radioactivity retained on the filters counted by liquid scintillation spectrometry.
as §1

[3] = test system: rhythmic bladder voiding contractions; experiment: Volume-induced rhythmic bladder voiding contractions in anaesthetized rats; format: in vivo, rat; conditions: intravenous administration, anaesthetized rats; for ED50: Rattus norvegicus; for ED10min: extrapolated dose inducing 10 min of disappearance of the contractions
Method: Female Sprague Dawley rats weighing 225-275 g (Crl: CDo BR, Charles River Italia) were used. The animals were housed with free access to food and water and were maintained on a forced 12 h alternating light-dark cycle at 22-24° C. for at least one week, except during the experiment. The activity on the rhythmic bladder voiding contractions was evaluated according to the method of Dray (J. Pharmacol. Methods, 13:157, 1985), with some modifications as in Guarneri (Pharmacol. Res., 27:173, 1993). Briefly, rats were anesthetized by subcutaneous injection of 1.25 g/kg (5 ml/kg) urethane, after which the urinary bladder was catheterized via the urethra using PE 50 polyethylene tubing filled with physiological saline. The catheter was tied in place with a ligature around the external urethral orifice and was connected with conventional pressure transducers (Statham P23 ID/P23 XL). […] The bladder was then filled via the recording catheter by incremental volumes of warm (37° C.) saline until reflex bladder voiding contractions occurred (usually 0.8-1.5 ml). For intravenous (i.v.) injection of bioactive compounds, PE 50 polyethylene tubing filled with physiological saline was inserted into the jugular vein.
From the cystometrogram, the number of contractions recorded 15 min before (basal values) and after treatment, as well as the mean amplitude of these contractions (mean height of the peaks in mm Hg) was evaluated.
Since most compounds produced an effect that was relatively rapid in onset and led to a complete cessation of bladder contractions, bioactivity was conveniently estimated by measuring the duration of bladder quiescence (i.e., the duration of time during which no contractions occurred). Moreover, the number of animals tested showing a reduction in the number of contractions >30% of that observed in the basal period, was recorded. […] Also computed in this manner were extrapolated doses which induced a reduction of the number of contractions of greater than 30% in 50% of treated rats (ED50, frequency) by the method of Bliss (Bliss C. I., Quart. J. Pharm. Pharmacol. 11, 192-216, 1938). After the suppressive effects of drug injection wore off, the height of the contractile peaks was compared with the height of the peaks previously recorded after the control intravenous administration of vehicle. The potency of the tested compounds (ED50 value, the extrapolated doses inducing a 30% reduction of amplitude of the contractions in 50% of treated rats) was evaluated on a quantal basis by the method of Bliss (Bliss C. I., Quart. J. Pharm. Pharmacol. 11, 192-216, 1938).

[4] = recombinant human receptor in HeLa membranes, [3H]8-OH-DPAT, read-out: Ki 5-HT1A
[5] = extrapolated dose inducing a reduction of the number of contractions >30% in 50% of treated rats, read-out: ED50 (frequency)
[6] = extrapolated dose inducing 30% reduction of amplitude of the contractions in 50% of treated rats, n.a. = not active, no significant reduction of the height of peaks, read-out: ED50 (amplitude)

T2 sequence (P14842 whole entry): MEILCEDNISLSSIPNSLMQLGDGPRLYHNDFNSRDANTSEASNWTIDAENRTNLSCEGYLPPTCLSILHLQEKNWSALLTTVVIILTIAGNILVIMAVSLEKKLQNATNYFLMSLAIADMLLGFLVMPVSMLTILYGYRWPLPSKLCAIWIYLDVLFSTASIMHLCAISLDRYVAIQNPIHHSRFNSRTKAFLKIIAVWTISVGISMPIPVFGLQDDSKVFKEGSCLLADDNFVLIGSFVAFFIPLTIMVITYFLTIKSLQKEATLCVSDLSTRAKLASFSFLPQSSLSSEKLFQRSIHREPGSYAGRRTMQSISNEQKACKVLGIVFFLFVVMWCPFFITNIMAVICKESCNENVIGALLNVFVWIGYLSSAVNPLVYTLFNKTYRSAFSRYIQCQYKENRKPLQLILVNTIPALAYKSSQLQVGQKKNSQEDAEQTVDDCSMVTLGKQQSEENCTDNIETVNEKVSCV

Compound | Ki [1, 4] [nM] | Ki [2] [nM] | Ki (α1 adrenergic receptors) [nM] | ED50 [3, 5] [mg/kg] | ED10min [3] [mg/kg] | Ki [1] [nM] | further results
COc1ccccc1N1CCN(CCC(O)(c2ccccn2)c2ccccn2)CC1 [Ex. 14, 1-[3-hydroxy-3,3-bis-(2-pyridyl)propyl]-4-(2-methoxyphenyl)piperazine] | 0.34 | > 1000 | 114 | 0.036 | 0.127 |  | 
COc1ccccc1N1CCN(CCN(c2ccccn2)c2ccccc2[N+](=O)[O-])CC1 [Ex. 11, 1-[N-(2-nitrophenyl)-N-(2-pyridyl)-2-aminoethyl]-4-(2-methoxyphenyl)-piperazine] | 6.74 |  | 62.5 | 0.024 | 0.162 |  | 
COc1ccccc1N1CCN(CCC(C(N)=O)(c2ccccc2)c2ccccn2)CC1 (stereo not drawn) [Ex. 10, 1-[3-aminocarbonyl-3-phenyl-3-(2-pyridyl)propyl]-4-(2-methoxyphenyl)piperazine] |  | 683 | 1320 | 0.18 | 0.228 | 19.3 | 
COc1ccccc1N1CCN(CCC(c2ccccc2)c2ccccc2)CC1 [Ex. 1, 1-(3,3-diphenylpropyl)-4-(2-methoxyphenyl)piperazine hydrochloride] | 3.9 | 320 | 145 |  |  |  | 
COc1ccccc1N1CCN(CCC(C#N)(c2ccccn2)c2ccccn2)CC1 [Ex. 6, 1-[3-cyano-3,3-bis-(2-pyridyl)propyl]-4-(2-methoxyphenyl)piperazine] |  |  | 1250 | 0.093 | 0.225 | 13.3 | 
COc1ccccc1N1CCN(CCC(C#N)(c2ccccc2)c2ccccc2[N+](=O)[O-])CC1 (stereo not drawn) [Ex. 12, 1-[3-cyano-3-(2-nitrophenyl)-3-phenylpropyl]-4-(2-methoxyphenyl)piperazine] |  | 790 | 226 |  |  | 1.45 | 
COc1ccccc1N1CCN(CCC(C(N)=O)(c2ccccc2)c2ccccc2[N+](=O)[O-])CC1 (stereo not drawn) [Ex. 13, 1-[3-aminocarbonyl-3-(2-nitrophenyl)-3-phenylpropyl]-4-(2-methoxyphenyl)-piperazine] |  |  | 365 | 0.084 |  | 2.3 | 
CN(C)CCCN1c2ccccc2CCc2ccccc21 [Imipramine, reference compound] |  |  |  | 4.93 | > 6 |  | ED50 [3, 6]: 2.93 mg/kg; effect on the amplitude of the bladder contractions (in words) [3]: did not affect the amplitude of the contractions
COc1ccccc1N1CCN(CCC(c2ccccn2)c2ccccn2)CC1 [Ex. 8, 1-[3,3-bis-(2-pyridyl)propyl]-4-(2-methoxyphenyl)piperazine] | 3.97 | 320 | 191 | 0.0025 | 0.074 |  | 
CCN(CC)CC#CCOC(=O)C(O)(c1ccccc1)C1CCCCC1 (stereo not drawn) [Oxybutynin, reference compound] |  |  |  | 10 | 7.77 |  | ED50 [3, 6]: 0.24 mg/kg
COc1ccccc1N1CCN(CCC(C(N)=O)(c2ccccn2)c2ccccc2[N+](=O)[O-])CC1 (stereo not drawn) [Ex. 17, 1-[3-aminocarbonyl-3-(2-nitrophenyl)-3-(2-pyridyl)propyl]-4-(2-methoxyphenyl)-piperazine] |  |  | 307 |  |  | 5.18 | 
Cc1c(-c2ccccc2)oc2c(C(=O)OCCN3CCCCC3)cccc2c1=O [Flavoxate, reference compound] |  |  |  |  |  |  | effect on the amplitude of the bladder contractions (in words) [3]: did not affect the amplitude of the contractions; ED10min ([3]; in µg/kg): >10000
COc1ccccc1N1CCN(CCN(c2ccccn2)c2ccccn2)CC1.Cl [Ex. 5, 1-[N-N-bis-(2-pyridyl)-2-aminoethyl]-4-(2-methoxyphenyl)piperazine hydrochloride] |  |  |  |  | 0.523 |  | ED50 (frequency) ([3]; extrapolated dose inducing a reduction of the number of contractions >30% in 50% of treated rats): 0.077 mg/kg
c1ccc(C(CCN2CCN(c3cccc4c3OCCO4)CC2)c2ccccc2)cc1 [Ex. 2, 1-(3,3-diphenylpropyl)-4-[5-(2,3-dihydro-1,4-benzodioxinyl)]piperazine methanesulphonate] | 0.6 | 159 | 208 |  |  |  | 
